{"source": "patent US20140134253A1", "about": "“DRY POWDER FOSFOMYCIN/TOBRAMYCIN FORMULATION FOR INHALATION” (Gilead Sciences, Inc., priority 2011, published 2014)", "key": {"[1]": {"experiment": "pH of the active ingredients in solution", "assay_type": "physicochemical", "excerpt": "Although simple amino acids and peptides have been used as excipients in pulmonary delivery, they exist as zwitterions with the free amine being protonated by the carboxylic acid. Since fosfomycin disodium and tobramycin base are basic with pHs of approximately 9.7, and 11 in solution, respectively, a formulation combining fosfomycin disodium and tobramycin base would be expected to be outside of the pH range to be tolerable for administration by inhalation to the pulmonary system. However, with the addition of NAL, the pH range in the lung upon administration of the dry powder formulation of the present invention is between about 7 to about 8, and preferably, from about 7.1 to about 7.7. Without the addition of NAL, a dry powder formulation combining fosfomycin disodium and tobramycin in the same molar ratios would be expected to produce a pH in the lung of about 8.2 (when the pH of tobramycin is adjusted with 2.5 molar equivalent of sulfuric acid) and a pH of about 9.1 (without pH adjustment with sulfuric acid)."}, "[2]": {"tested_on": "E. coli, Proteus spp., Salmonella spp., Shigella spp., and S. marcescens", "conditions": "cited from earlier work"}, "[3]": {"conditions": "cited from earlier work"}, "[4]": {"conditions": "aerosol administration; cited from earlier work"}}}
{"compound": "C[C@@H]1O[C@@H]1P(=O)(O)O", "note": "[fosfomycin disodium]", "values": [{"measurement": "pH in solution", "setting": "[1]", "value": "approximately 9.7"}]}
{"compound": "C[C@@H]1O[C@@H]1P(=O)(O)O", "note": "[Fosfomycin]", "values": [{"measurement": "fosfomycin concentration at which organisms are generally inhibited", "setting": "[2]", "value": "≤ 64", "unit": "µg/mL"}]}
{"compound": "NC[C@H]1O[C@H](O[C@H]2[C@H](O)[C@@H](O[C@H]3O[C@H](CO)[C@@H](O)[C@H](N)[C@H]3O)[C@H](N)C[C@@H]2N)[C@H](N)C[C@@H]1O", "note": "[tobramycin, Tobramycin]", "values": [{"measurement": "pH in solution", "setting": "[1]", "value": "~11"}, {"measurement": "oral absorption", "setting": "[3]; in vivo, po", "value": "poorly absorbed orally"}, {"measurement": "plasma half-life", "setting": "[3]; parenteral administration, excreted by glomerular filtration", "value": "1 to 2", "unit": "h"}, {"measurement": "sputum levels", "setting": "[4]", "value": "≥ 1000", "unit": "µg/mL"}]}
